Values of other authors in US20240350489A1, “LOU064 FOR TREATING MULTIPLE SCLEROSIS” (NOVARTIS AG, priority 2021, published 2024).
“Also recorded” adds a separate entry of the source. Where two headings read alike, the source gives them in different places.

Experiments:
[1] = test system: experimental autoimmune encephalomyelitis (EAE); conditions: cited from earlier work
[2] = cited from earlier work
[3] = cited from earlier work; remark: listed apart in the source

Structure (SMILES)	efficacy in EAE ([1]; 3 mg/kg)	efficacy in EAE ([1]; 10 mg/kg vs 3 mg/kg)	elevations of ALT, AST and lipase ([2]; 75 mg once daily and twice daily)	brain lesions and relapses ([2]; 75 mg once or twice per day vs placebo or dimethyl fumarate)	dose-limiting side effects ([3]; human, in vivo)	MS lesion development ([3]; mid-stage trials)	most frequent adverse events ([3]; mid-stage trials)
C=CC(=O)N1CCC(CNc2ncnc(N)c2-c2ccc(Oc3ccccc3)cc2)CC1 [evobrutinib]	effective	did not further improve the effect	dose-limiting liver enzyme elevations; also recorded: higher frequency of elevations	trend toward developing fewer brain lesions and experiencing fewer relapses	–	–	–
C=CC(=O)N1CCC[C@@H](n2c(=O)n(-c3ccc(Oc4ccccc4)cc3)c3c(N)nccc32)C1 [tolebrutinib]	–	–	–	–	dose-limiting diarrhea	reduction in MS lesion development	headaches and cold-like symptoms
